Test results published in PubChem BioAssay AID328 (DTP/NCI, 2004).
“And” between values parts separate entries of the source, which are not always exact repeats. Equal entries are not always repeated. Toxic doses and inconclusive results are not listed.

Tested on: BDF1 mice, P388 leukemia ip, median survival T/C
Test: NCI In Vivo Anticancer Drug Screen. Data for tumor model P388 Leukemia (intraperitoneal) in B6D2F1 (BDF1) mice
Settings: endpoint: median survival time, higher = longer survival
How it was run: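 Steps: implant the tumour, treat one group with compound and another with vehicle, record survival, then divide treated by control.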

[1] = dose: 400.0 mg/kg/injection, schedule: Q01DX001 (ip), vehicle: Klucel (hydroxypropylcellulose) (HPC)

Cc1ccc(COC(=O)c2ccccc2)cc1
T/C (dose: 100.0 mg/kg/injection, schedule: Q01DX001 (ip), vehicle: Klucel (hydroxypropylcellulose) (HPC)): 104 % of control
T/C (dose: 200.0 mg/kg/injection, schedule: Q01DX001 (ip), vehicle: Klucel (hydroxypropylcellulose) (HPC)): 95 % of control
T/C [1]: 104 % of control

COc1cccc2c1C(=O)c1c(O)c3c(c(O)c1C2=O)C[C@@](O)(C(=O)CO)C[C@@H]3OC1CC(NC(=O)C(F)(F)F)C(O)C(C)O1 (stereo partly specified)
T/C (dose: 3.13 mg/kg/injection, schedule: Q04DX009 (ip), vehicle: other): 113 % of control
T/C (dose: 6.25 mg/kg/injection, schedule: Q04DX009 (ip), vehicle: other): 121 % of control
T/C (dose: 12.5 mg/kg/injection, schedule: Q04DX009 (ip), vehicle: other): 123 % of control

O=C(c1ccc(Cl)cc1)n1c(Cl)c(/C=N\Nc2cccc([N+](=O)[O-])c2)c2ccccc21
T/C [1]: 89 % of control

N#Cc1ccc(NC(=O)N(CCCl)N=O)cc1
T/C (dose: 0.29 mg/kg/injection, schedule: Q01DX009 (ip), vehicle: saline): 122 % of control
T/C (dose: 0.37 mg/kg/injection, schedule: Q01DX009 (ip), vehicle: Klucel (hydroxypropylcellulose) (HPC)): 116 % of control
T/C (dose: 0.44 mg/kg/injection, schedule: Q01DX009 (ip), vehicle: saline): 122 % of control
T/C (dose: 0.5 mg/kg/injection, schedule: Q04DX003 (ip), vehicle: Klucel (hydroxypropylcellulose) (HPC)): 103 % of control
T/C (dose: 0.8 mg/kg/injection, schedule: Q04DX003 (ip), vehicle: Klucel (hydroxypropylcellulose) (HPC)): 107 % of control
T/C (dose: 1.0 mg/kg/injection, schedule: Q01DX009 (ip), vehicle: saline): 162 % of control
T/C (dose: 1.56 mg/kg/injection, schedule: Q01DX009 (ip), vehicle: saline): 153 % of control and 202 % of control
T/C (dose: 2.0 mg/kg/injection, schedule: Q04DX003 (ip), vehicle: Klucel (hydroxypropylcellulose) (HPC)): 183 % of control
T/C (dose: 3.0 mg/kg/injection, schedule: Q01DX009 (ip), vehicle: Klucel (hydroxypropylcellulose) (HPC)): 187 % of control
T/C (dose: 3.0 mg/kg/injection, schedule: Q04DX003 (ip), vehicle: Klucel (hydroxypropylcellulose) (HPC)): 170 % of control
T/C (dose: 3.12 mg/kg/injection, schedule: Q01DX009 (ip), vehicle: Klucel (hydroxypropylcellulose) (HPC)): 175 % of control
T/C (dose: 3.12 mg/kg/injection, schedule: Q01DX009 (ip), vehicle: saline): 194 % of control
T/C (dose: 5.0 mg/kg/injection, schedule: Q04DX003 (ip), vehicle: Klucel (hydroxypropylcellulose) (HPC)): 191 % of control and 200 % of control and 215 % of control
T/C (dose: 6.25 mg/kg/injection, schedule: Q01DX009 (ip), vehicle: Klucel (hydroxypropylcellulose) (HPC)): 204 % of control
T/C (dose: 6.25 mg/kg/injection, schedule: Q01DX009 (ip), vehicle: saline): 219 % of control
T/C (dose: 8.0 mg/kg/injection, schedule: Q04DX003 (ip), vehicle: Klucel (hydroxypropylcellulose) (HPC)): 185 % of control and 210 % of control
T/C (dose: 12.0 mg/kg/injection, schedule: Q04DX003 (ip), vehicle: Klucel (hydroxypropylcellulose) (HPC)): 245 % of control and 220 % of control
T/C (dose: 12.5 mg/kg/injection, schedule: Q01DX009 (ip), vehicle: Klucel (hydroxypropylcellulose) (HPC)): 100 % of control
T/C (dose: 12.5 mg/kg/injection, schedule: Q01DX009 (ip), vehicle: saline): 102 % of control
T/C (dose: 12.5 mg/kg/injection, schedule: Q04DX003 (ip), vehicle: Klucel (hydroxypropylcellulose) (HPC)): 222 % of control
T/C (dose: 18.0 mg/kg/injection, schedule: Q04DX003 (ip), vehicle: Klucel (hydroxypropylcellulose) (HPC)): 265 % of control and 110 % of control
T/C (dose: 25.0 mg/kg/injection, schedule: Q04DX003 (ip), vehicle: Klucel (hydroxypropylcellulose) (HPC)): 109 % of control

NC(CS/C(Cl)=C/Cl)C(=O)O (stereo unspecified)
T/C (dose: 1.5 mg/kg/injection, schedule: Q01DX009 (ip), vehicle: saline): 95 % of control
T/C (dose: 3.0 mg/kg/injection, schedule: Q01DX009 (ip), vehicle: saline): 100 % of control and 109 % of control
T/C (dose: 6.0 mg/kg/injection, schedule: Q01DX009 (ip), vehicle: saline): 92 % of control and 95 % of control
T/C (dose: 7.4 mg/kg/injection, schedule: Q01DX009 (ip), vehicle: saline): 109 % of control
T/C (dose: 11.0 mg/kg/injection, schedule: Q01DX009 (ip), vehicle: saline): 113 % of control
T/C (dose: 12.0 mg/kg/injection, schedule: Q01DX009 (ip), vehicle: saline): 90 % of control
T/C (dose: 16.0 mg/kg/injection, schedule: Q04DX003 (ip), vehicle: saline): 120 % of control
T/C (dose: 17.0 mg/kg/injection, schedule: Q01DX009 (ip), vehicle: saline): 152 % of control
T/C (dose: 25.0 mg/kg/injection, schedule: Q04DX003 (ip), vehicle: saline): 120 % of control
T/C (dose: 27.0 mg/kg/injection, schedule: Q01DX009 (ip), vehicle: saline): 168 % of control
T/C (dose: 35.0 mg/kg/injection, schedule: Q04DX003 (ip), vehicle: saline): 104 % of control

COC(=O)/C=C/CBr
T/C (dose: 2.5 mg/kg/injection, schedule: Q01DX010 (ip), vehicle: saline): 110 % of control
T/C (dose: 5.0 mg/kg/injection, schedule: Q01DX010 (ip), vehicle: saline): 110 % of control
T/C (dose: 10.0 mg/kg/injection, schedule: Q01DX010 (ip), vehicle: saline): 110 % of control
T/C (dose: 20.0 mg/kg/injection, schedule: Q01DX010 (ip), vehicle: saline): 115 % of control

CC(=O)NC1CC(=O)N(c2ccccc2)C1 (stereo unspecified)
T/C (dose: 87.5 mg/kg/injection, schedule: Q01DX009 (ip), vehicle: saline with Tween-80): 102 % of control
T/C (dose: 175.0 mg/kg/injection, schedule: Q01DX009 (ip), vehicle: saline with Tween-80): 111 % of control
T/C (dose: 350.0 mg/kg/injection, schedule: Q01DX009 (ip), vehicle: saline with Tween-80): 100 % of control

O/N=C(/C(=N/O)c1ccccc1)c1ccccc1.O/N=C(/C(=N/O)c1ccccc1)c1ccccc1.[Cl][Rh][Cl]
T/C (dose: 25.0 mg/kg/injection, schedule: Q01DX009 (ip), vehicle: saline): 119 % of control
T/C (dose: 50.0 mg/kg/injection, schedule: Q01DX009 (ip), vehicle: saline): 117 % of control
T/C (dose: 100.0 mg/kg/injection, schedule: Q01DX009 (ip), vehicle: saline): 94 % of control
T/C (dose: 200.0 mg/kg/injection, schedule: Q01DX009 (ip), vehicle: saline): 103 % of control
T/C (dose: 400.0 mg/kg/injection, schedule: Q01DX009 (ip), vehicle: saline): 95 % of control

CCCN(CCC)CC(C)O (stereo unspecified)
T/C (dose: 50.0 mg/kg/injection, schedule: Q04DX003 (ip), vehicle: saline): 109 % of control
T/C (dose: 100.0 mg/kg/injection, schedule: Q04DX003 (ip), vehicle: saline): 100 % of control
T/C (dose: 200.0 mg/kg/injection, schedule: Q04DX003 (ip), vehicle: saline): 95 % of control

O=c1cc(O)[nH]c(=S)[nH]1
T/C (dose: 50.0 mg/kg/injection, schedule: Q01DX009 (ip), vehicle: saline with Tween-80): 103 % of control
T/C (dose: 100.0 mg/kg/injection, schedule: Q01DX009 (ip), vehicle: saline with Tween-80): 99 % of control
T/C (dose: 200.0 mg/kg/injection, schedule: Q01DX009 (ip), vehicle: saline with Tween-80): 88 % of control

C/C=C/C1=C(Cl)C(=O)[C@@H](Cl)[C@@]1(O)C(=O)OC
T/C (dose: 0.31 mg/kg/injection, schedule: Q01DX009 (ip), vehicle: saline with Tween-80): 106 % of control
T/C (dose: 0.63 mg/kg/injection, schedule: Q01DX009 (ip), vehicle: saline with Tween-80): 115 % of control
T/C (dose: 1.25 mg/kg/injection, schedule: Q01DX009 (ip), vehicle: saline with Tween-80): 106 % of control and 117 % of control
T/C (dose: 2.5 mg/kg/injection, schedule: Q01DX001 (ip), vehicle: saline with Tween-80): 106 % of control
T/C (dose: 2.5 mg/kg/injection, schedule: Q04DX003 (ip), vehicle: saline with Tween-80): 105 % of control
T/C (dose: 4.4 mg/kg/injection, schedule: Q01DX009 (ip), vehicle: saline with Tween-80): 121 % of control
T/C (dose: 5.0 mg/kg/injection, schedule: Q01DX001 (ip), vehicle: saline with Tween-80): 101 % of control
T/C (dose: 5.0 mg/kg/injection, schedule: Q04DX003 (ip), vehicle: saline with Tween-80): 110 % of control
T/C (dose: 6.6 mg/kg/injection, schedule: Q01DX009 (ip), vehicle: saline with Tween-80): 122 % of control
T/C (dose: 8.8 mg/kg/injection, schedule: Q01DX009 (ip), vehicle: saline with Tween-80): 114 % of control
T/C (dose: 10.0 mg/kg/injection, schedule: Q01DX001 (ip), vehicle: saline with Tween-80): 108 % of control
T/C (dose: 10.0 mg/kg/injection, schedule: Q04DX003 (ip), vehicle: saline with Tween-80): 108 % of control
T/C (dose: 13.3 mg/kg/injection, schedule: Q01DX009 (ip), vehicle: saline with Tween-80): 123 % of control
T/C (dose: 17.0 mg/kg/injection, schedule: Q01DX001 (ip), vehicle: saline with Tween-80): 119 % of control
T/C (dose: 20.0 mg/kg/injection, schedule: Q01DX001 (ip), vehicle: saline with Tween-80): 112 % of control

O=C(O)COc1c(Br)cc(Br)cc1Br
T/C (dose: 50.0 mg/kg/injection, schedule: Q01DX009 (ip), vehicle: Klucel (hydroxypropylcellulose) (HPC)): 90 % of control
T/C (dose: 100.0 mg/kg/injection, schedule: Q01DX009 (ip), vehicle: Klucel (hydroxypropylcellulose) (HPC)): 90 % of control
T/C (dose: 200.0 mg/kg/injection, schedule: Q01DX009 (ip), vehicle: Klucel (hydroxypropylcellulose) (HPC)): 110 % of control
